“And” between values parts separate entries of the source, which are not always exact repeats. Equal values may be shown once. Toxic doses and inconclusive results are not listed.

Consider 21 compounds from PubChem BioAssay AID330 (DTP/NCI, 2004).

The test system of the test is P388 leukemia ip, CD2F1 mice, survival T/C. The experiment in a line: NCI In Vivo Anticancer Drug Screen. Data for tumor model P388 Leukemia (intraperitoneal) in CD2F1 (CDF1) mice. The following applies: endpoint: median survival time, higher = longer survival. The method, boiled down:
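Mice carrying the transplanted tumor received test compound or vehicle. Survival was recorded in each group, and the value is the treated-group measurement divided by that of the vehicle-treated control group.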

[1] abbreviates: dose: 60.0 mg/kg/injection, schedule: Q01DX005 (ip), vehicle: saline with Tween-80.
[2] abbreviates: dose: 120.0 mg/kg/injection, schedule: Q01DX005 (ip), vehicle: saline with Tween-80.
The mark [3] stands for this setting: dose: 100.0 mg/kg/injection, schedule: Q04DX003 (ip), vehicle: Klucel (hydroxypropylcellulose) (HPC).
Where [4] appears, read: dose: 200.0 mg/kg/injection, schedule: Q04DX003 (ip), vehicle: Klucel (hydroxypropylcellulose) (HPC).
The mark [5] stands for this setting: dose: 400.0 mg/kg/injection, schedule: Q04DX003 (ip), vehicle: Klucel (hydroxypropylcellulose) (HPC).
The mark [6] stands for this setting: dose: 50.0 mg/kg/injection, schedule: Q01DX005 (ip), vehicle: Klucel (hydroxypropylcellulose) (HPC).
The mark [7] stands for this setting: dose: 100.0 mg/kg/injection, schedule: Q01DX005 (ip), vehicle: Klucel (hydroxypropylcellulose) (HPC).
Where [8] appears, read: dose: 15.0 mg/kg/injection, schedule: Q01DX005 (ip), vehicle: saline with Tween-80.
[9] abbreviates: dose: 30.0 mg/kg/injection, schedule: Q01DX005 (ip), vehicle: saline with Tween-80.
The mark [10] stands for this setting: dose: 60.0 mg/kg/injection, schedule: Q01DX005 (ip), vehicle: Klucel (hydroxypropylcellulose) (HPC).
Where [11] appears, read: dose: 120.0 mg/kg/injection, schedule: Q01DX005 (ip), vehicle: Klucel (hydroxypropylcellulose) (HPC).
Setting [12] is: dose: 200.0 mg/kg/injection, schedule: Q01DX005 (ip), vehicle: Klucel (hydroxypropylcellulose) (HPC).

Turning to `Cc1cc2cc(O)c3c(=O)c4c(O)cccc4c(=O)c3c2c(=O)c1=O`, the T/C was 101 % of control (dose: 3.12 mg/kg/injection, schedule: Q01DX005 (ip), vehicle: other); 107 % of control (dose: 6.25 mg/kg/injection, schedule: Q01DX005 (ip), vehicle: other); 100 % of control (dose: 12.5 mg/kg/injection, schedule: Q01DX005 (ip), vehicle: other); 104 % of control (dose: 25.0 mg/kg/injection, schedule: Q01DX005 (ip), vehicle: other).

Take `CN(/N=C1\C(=O)Nc2ccccc21)c1ccccc1`: the T/C is, setting by setting: (dose: 50.0 mg/kg/injection, schedule: Q01DX005 (ip), vehicle: saline with Tween-80) 95 % of control; (dose: 100.0 mg/kg/injection, schedule: Q01DX005 (ip), vehicle: saline with Tween-80) 93 % of control; (dose: 200.0 mg/kg/injection, schedule: Q01DX005 (ip), vehicle: saline with Tween-80) 88 % of control.

With `Cc1nc(N(C)C)oc(=O)c1CCc1ccccc1`, the T/C is 102 % of control under setting [1]; 102 % of control under setting [2]; 100 % of control (dose: 240.0 mg/kg/injection, schedule: Q01DX005 (ip), vehicle: saline with Tween-80).

In the case of `Clc1ccccc1CN1COc2c(ccc3cccnc23)C1`, the T/C is 103 % of control under setting [3], 100 % of control under setting [4] and 100 % of control under setting [5].

Turning to `CC[C@@]1(O)C[C@H](OC2CC(N)C(O)C(C)O2)c2c(O)c3c(c(O)c2[C@H]1C(=O)OC)C(=O)c1cccc(O)c1C3=O` (some centres not stated), the T/C runs as follows: (dose: 1.0 mg/kg/injection, schedule: Q01DX009 (ip), vehicle: water) 115 % of control; (dose: 2.0 mg/kg/injection, schedule: Q01DX009 (ip), vehicle: water) 116 % of control; (dose: 2.3 mg/kg/injection, schedule: Q01DX009 (ip), vehicle: water) 123 % of control; (dose: 12.5 mg/kg/injection, schedule: Q01DX001 (ip), vehicle: water) 116 % of control; (dose: 16.0 mg/kg/injection, schedule: Q01DX009 (ip), vehicle: water) 86 % of control; (dose: 25.0 mg/kg/injection, schedule: Q01DX001 (ip), vehicle: water) 150 % of control.

`COc1ccc2c(NCCCCCCCCNc3c4ccc(OC)cc4nc4ccc(Cl)cc34)c3cc(Cl)ccc3nc2c1`: the T/C was 91 % of control (dose: 0.63 mg/kg/injection, schedule: Q01DX009 (ip), vehicle: other); 105 % of control (dose: 1.25 mg/kg/injection, schedule: Q01DX009 (ip), vehicle: other); 106 % of control (dose: 2.5 mg/kg/injection, schedule: Q01DX009 (ip), vehicle: other); 118 % of control (dose: 5.0 mg/kg/injection, schedule: Q01DX009 (ip), vehicle: other).

As to `C=C1C2CC[C@H]3C4(C)CCCC(C)(C(=O)O)[C@H]4CCC3(C2)[C@@H]1OC(C)=O` (some centres not stated), the T/C was 108 % of control (dose: 3.5 mg/kg/injection, schedule: Q01DX005 (ip), vehicle: Klucel (hydroxypropylcellulose) (HPC)); 97 % of control (dose: 7.0 mg/kg/injection, schedule: Q01DX005 (ip), vehicle: Klucel (hydroxypropylcellulose) (HPC)); 100 % of control (dose: 14.0 mg/kg/injection, schedule: Q01DX005 (ip), vehicle: Klucel (hydroxypropylcellulose) (HPC)); 88 % of control (dose: 25.0 mg/kg/injection, schedule: Q01DX005 (ip), vehicle: Klucel (hydroxypropylcellulose) (HPC)); 94 % of control (dose: 28.0 mg/kg/injection, schedule: Q01DX005 (ip), vehicle: Klucel (hydroxypropylcellulose) (HPC)); 90 % of control under setting [6]. Also, the T/C under setting [7] is 90 % of control.

With `Nc1nc(Cl)c(N=Nc2ccccc2)c(=O)[nH]1`, the T/C is 111 % of control (dose: 7.5 mg/kg/injection, schedule: Q01DX005 (ip), vehicle: saline with Tween-80); 105 % of control under setting [8]; 99 % of control and 108 % of control under setting [9]; 101 % of control and 109 % of control under setting [1].

For the compound `CCN(CC)C(=O)NCCCCCCNC(=O)N(CC)CC`, the T/C by setting is: under setting [8], 103 % of control; under setting [9], 98 % of control and 104 % of control; under setting [1], 98 % of control and 100 % of control and 94 % of control; under setting [2], 87 % of control.

As to `COc1cc2c(cc1OC)C(Cc1ccccc1)=NCC2`, the T/C by setting is: (dose: 25.0 mg/kg/injection, schedule: Q01DX009 (ip), vehicle: saline with Tween-80) 100 % of control; (dose: 50.0 mg/kg/injection, schedule: Q01DX009 (ip), vehicle: saline with Tween-80) 95 % of control; (dose: 100.0 mg/kg/injection, schedule: Q01DX009 (ip), vehicle: saline with Tween-80) 90 % of control.

In the case of `O=C(Cc1nc2ccccc2[nH]1)NNC(=S)Nc1ccc(Cl)cc1`, the T/C is, setting by setting: under setting [10], 88 % of control; under setting [11], 86 % of control.

For `Cc1cccc(C)c1OC(=S)SSC(=S)Oc1c(C)cccc1C`, the T/C runs as follows: (dose: 100.0 mg/kg/injection, schedule: Q01DX001 (ip), vehicle: Klucel (hydroxypropylcellulose) (HPC)) 94 % of control; (dose: 200.0 mg/kg/injection, schedule: Q01DX001 (ip), vehicle: Klucel (hydroxypropylcellulose) (HPC)) 87 % of control.

In the case of `CNC(=O)NCCCCCCNC(=O)NC`, the T/C reads like this: under setting [6], 99 % of control and 95 % of control; under setting [7], 87 % of control and 95 % of control; under setting [12], 89 % of control.

Consider `CS/C(=C1/C(=O)N(c2ccccc2)N=C1c1ccc(C)cc1)N1CC1`, for which the T/C was 91 % of control under setting [3], 94 % of control under setting [4] and 94 % of control under setting [5].

As to `COc1c2ccc(OCC=C(C)C)cc2nc2occc12`, the T/C is 106 % of control (dose: 7.0 mg/kg/injection, schedule: Q01DX005 (ip), vehicle: Klucel + Tween-80); 103 % of control (dose: 14.0 mg/kg/injection, schedule: Q01DX005 (ip), vehicle: Klucel + Tween-80); 99 % of control (dose: 28.0 mg/kg/injection, schedule: Q01DX005 (ip), vehicle: Klucel + Tween-80); 103 % of control (dose: 56.0 mg/kg/injection, schedule: Q01DX005 (ip), vehicle: Klucel + Tween-80).

For `O/N=C\c1ccc(/C=N/O)cc1`, the T/C by setting is: (dose: 50.0 mg/kg/injection, schedule: Q04DX003 (ip), vehicle: saline with Tween-80) 100 % of control; (dose: 100.0 mg/kg/injection, schedule: Q04DX003 (ip), vehicle: saline with Tween-80) 100 % of control; (dose: 200.0 mg/kg/injection, schedule: Q04DX003 (ip), vehicle: saline with Tween-80) 95 % of control.

In the case of `Cc1ccccc1N1CCN(c2ccccc2C)C1=C1N(c2ccccc2C)CCN1c1ccccc1C`, the T/C (dose: 85.0 micrograms/kg/injection, schedule: Q01DX009 (ip), vehicle: DMSO) is 101 % of control; the T/C (dose: 190.0 micrograms/kg/injection, schedule: Q01DX009 (ip), vehicle: DMSO) was 93 % of control; the T/C (dose: 380.0 micrograms/kg/injection, schedule: Q01DX009 (ip), vehicle: DMSO) was 93 % of control.

For `CCCN(CCC)C(=O)C(c1ccccc1)C1(O)CCCCC1` (configuration not stated), the T/C under setting [6] is 100 % of control, the T/C under setting [7] was 100 % of control and the T/C under setting [12] was 97 % of control.

On to `CCOC(=O)C1NC(=O)C(C)NC1=O` (configuration not stated), for which the T/C by setting is: under setting [10], 103 % of control; under setting [11], 107 % of control; (dose: 240.0 mg/kg/injection, schedule: Q01DX005 (ip), vehicle: Klucel (hydroxypropylcellulose) (HPC)) 100 % of control.

On to `CN(C)C(C)(C#N)C(N)=O` (configuration not stated), for which the T/C is 103 % of control and 93 % of control (dose: 1.56 mg/kg/injection, schedule: Q04DX003 (ip), vehicle: saline); 101 % of control (dose: 3.12 mg/kg/injection, schedule: Q04DX003 (ip), vehicle: saline); 100 % of control and 96 % of control and 98 % of control (dose: 6.25 mg/kg/injection, schedule: Q04DX003 (ip), vehicle: saline).

With `CS/C(=C/c1ccc2ccccc2[n+]1C)N1CCCCC1`, the T/C was 109 % of control (dose: 0.78 mg/kg/injection, schedule: Q01DX005 (ip), vehicle: saline with Tween-80) and 116 % of control (dose: 1.56 mg/kg/injection, schedule: Q01DX005 (ip), vehicle: saline with Tween-80).
